pEC50: −log10 of the molar value. Read-outs that look alike come from different tables or passages of the source.

Consider 11 molecules from PMC5439695 (PLoS ONE, 2017).

The subject of one data set is NRF2. The settings on record: cited from earlier work; for Nrf2 TF activity (in words): Tox21 assay.
Data set [1] has as its system HEK293 and HepG2 cell lines.
The test system of data set [2] is HepG2 cells. Nature of the data set: CellTox Green Cytotoxicity Assay (flor) in HepG2, HepG2[flor].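 On hepg2 flor emax 0: percent activity versus DMSO-only wells with baseline rescaled to 0%.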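 On hepg2 flor emax 40: percent activity versus DMSO-only wells with baseline rescaled to 0%.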 Type of data set: cell-based, human. The settings on record: HepG2 flor; for pEC50: Homo sapiens, given as negative log-scale values.
In data set [3] the test system is HEK293 cells. The settings on record: HEK293 glo.
Data set [4] has as its system HEK293 cells. The settings on record: HEK293 flor.
Data set [5] deals with HepG2 cells. The settings on record: HepG2 glo.
Data set [6] concerns HEK293 cells. As to the kind of experiment: cells. The settings on record: Homo sapiens.
Data set [7] concerns HEK293 cells. Nature of the data set: cells. The settings on record: Homo sapiens. This is another data set of the same source.
Data set [8] has as its system HepG2 cells. Nature of the data set: cells. The settings on record: Homo sapiens.

As for `O=C(OC1CCCCC1)c1ccccc1C(=O)OC1CCCCC1` [Dicyclohexyl phthalate], the “increase NRF2 TF activity, POD potency” value in the data set on NRF2 was 4.18 log10(M)*-1.
As for Phenol, isopropylated, phosphate (3:1), the “increase NRF2 TF activity, POD potency” value in the data set with NRF2 is 4.21 log10(M)*-1.
On to `CC(C)(O)C(=O)Nc1ccc([N+](=O)[O-])c(C(F)(F)F)c1` [Hydroxyflutamide, reference compound], for which, in data set [1] (human), the “cytotoxicity kinetics activity profile in the four real-time cytotoxicity assays” value (shortened to “cytotoxicity kinetics activity profile”) was “active only in HEK293[glo]”. Also, the “Nrf2 TF activity (in words)” value in the data set on NRF2 is listed as “increased Nrf2 TF activity”.
For the molecule `O=C(OCCN1CCOCC1)c1cccnc1Nc1cccc(C(F)(F)F)c1` [Morniflumate, reference compound], the “increase NRF2 TF activity, POD potency” value in the data set with NRF2 was 4.54 log10(M)*-1.
Take `CC(C)C(=O)Nc1ccc([N+](=O)[O-])c(C(F)(F)F)c1` [Flutamide, reference compound]: the “cytotoxicity kinetics activity profile” value in [1] (human) is “active only in HEK293[glo]”. For the same molecule, the “Nrf2 TF activity (in words)” value with NRF2 is listed as “increased Nrf2 TF activity”.
Turning to `CC(C)(c1ccc(O)cc1)c1ccc(O)cc1` [Bisphenol A], the “cytotoxicity kinetics activity profile” value in [1] (human) was “active only in HEK293[glo]”. For the same molecule, the “Nrf2 TF activity (in words)” value in the data set on NRF2 is listed as “increased Nrf2 TF activity”.
`CC(=O)O[C@H]1CC[C@@]2(C)C(=CC[C@@H]3[C@@H]2CC[C@]2(C)C(C(C)=O)=CC[C@@H]32)C1` [Dehydropregnenolone acetate]: the “increase NRF2 TF activity, POD potency” value in the data set with NRF2 is given as 4.85 log10(M)*-1.
Regarding `O.[Br-].[Br-].c1cc[n+]2c(c1)-c1cccc[n+]1CC2` [Diquat dibromide monohydrate], in the data set with NRF2, the “increase NRF2 TF activity, POD potency” value was 5.17 log10(M)*-1.
For the molecule `CC12CC1(C)C(=O)N(c1cc(Cl)cc(Cl)c1)C2=O` (stereo not shown) [procymidone, reference compound], the “cytotoxicity kinetics activity profile” value in [1] is “no activity in all four real-time cytotoxicity assays”. Also, in the data set on NRF2, the “Nrf2 TF activity (in words)” value was “Weak Nrf2 activity”.
In the data set with HepG2 cells [2], `CC(C)=CCC/C(C)=C/CO` [Geraniol] came in with a hepg2_flor_auc of 0 and a hepg2_flor_time of 48. In the data set on HepG2 cells [2] (kinetics bin), the hepg2_flor_bin entry is “inactive”. Besides, in the data set with HepG2 cells [2] (time point 0), the hepg2_flor_emax_0 is given as 0, the hepg2_flor_pod_0 is -4.417 and the hepg2_flor_wauc_0 is given as 0. In the data set on HepG2 cells [2] (time point 8), the hepg2_flor_emax_8 stood at 0, the hepg2_flor_pod_8 was -4.417 and the hepg2_flor_wauc_8 was determined as 0. Also, in the data set on HepG2 cells [2] (time point 16), the hepg2_flor_emax_16 is given as 0, the hepg2_flor_pod_16 is recorded as -4.417 and the hepg2_flor_wauc_16 was 0. In the data set on HepG2 cells [2] (time point 24), this molecule displayed a hepg2_flor_emax_24 of 0, a hepg2_flor_pod_24 of -4.417 and a hepg2_flor_wauc_24 of 0. In the data set on HepG2 cells [2] (time point 32), this molecule returned a hepg2_flor_emax_32 of 0, a hepg2_flor_pod_32 of -4.417 and a hepg2_flor_wauc_32 of 0. In the data set on HepG2 cells [2] (time point 40), this molecule registered a hepg2_flor_emax_40 of 0, a hepg2_flor_pod_40 of -4.417 and a hepg2_flor_wauc_40 of 0. Also, the pEC50 in the data set with HepG2 cells [2] (time point 0, read-out: hepg2_flor_ec50_0) is below 4.42. Further, in the data set on HepG2 cells [2] (time point 8, read-out: hepg2_flor_ec50_8), the pEC50 was below 4.42. The pEC50 in the data set with HepG2 cells [2] (time point 16, read-out: hepg2_flor_ec50_16) was below 4.42. Further, in the data set with HepG2 cells [2] (time point 24, read-out: hepg2_flor_ec50_24), the pEC50 was below 4.42. In addition, the pEC50 in the data set with HepG2 cells [2] (time point 32, read-out: hepg2_flor_ec50_32) is below 4.42. For the same molecule, the pEC50 with HepG2 cells [2] (time point 40, read-out: hepg2_flor_ec50_40) was below 4.42. For the same molecule, in the data set with HEK293 cells [3], the hek293_glo_auc worked out at 0 and the hek293_glo_time was 48. Besides, the hek293_glo_bin entry with HEK293 cells [3] (kinetics bin) is “inactive”. Also, in the data set with HEK293 cells [3] (time point 0), the hek293_glo_emax_0 stood at 0, the hek293_glo_pod_0 is given as -4.417 and the hek293_glo_wauc_0 came to 0. In addition, in the data set on HEK293 cells [3] (time point 8), the hek293_glo_emax_8 is 0, the hek293_glo_pod_8 is on record as -4.417 and the hek293_glo_wauc_8 amounted to 0. Moreover, in the data set on HEK293 cells [3] (time point 16), the hek293_glo_emax_16 is given as 0, the hek293_glo_pod_16 is given as -4.417 and the hek293_glo_wauc_16 is 0. In the data set on HEK293 cells [3] (time point 24), the hek293_glo_emax_24 is 0, the hek293_glo_pod_24 is given as -4.417 and the hek293_glo_wauc_24 came out at 0. In the data set on HEK293 cells [3] (time point 32), this molecule had a hek293_glo_emax_32 of 0, a hek293_glo_pod_32 of -4.417 and a hek293_glo_wauc_32 of 0. In the data set with HEK293 cells [3] (time point 40), this molecule had a hek293_glo_emax_40 of 0, a hek293_glo_pod_40 of -4.417 and a hek293_glo_wauc_40 of 0. Also, in the data set on HEK293 cells [4], the hek293_flor_auc was determined as 0 and the hek293_flor_time stood at 48. Besides, the hek293_flor_bin result in the data set with HEK293 cells [4] (kinetics bin) is “inactive”. In the data set on HEK293 cells [4] (time point 0), the hek293_flor_emax_0 was 0, the hek293_flor_pod_0 was -4.417 and the hek293_flor_wauc_0 turned out to be 0. In the data set with HEK293 cells [4] (time point 8), this molecule returned a hek293_flor_emax_8 of 0, a hek293_flor_pod_8 of -4.417 and a hek293_flor_wauc_8 of 0. In addition, in the data set with HEK293 cells [4] (time point 16), the hek293_flor_emax_16 is given as 0, the hek293_flor_pod_16 is -4.417 and the hek293_flor_wauc_16 is recorded as 0. In the data set with HEK293 cells [4] (time point 24), this molecule gave a hek293_flor_emax_24 of 0, a hek293_flor_pod_24 of -4.417 and a hek293_flor_wauc_24 of 0. In the data set on HEK293 cells [4] (time point 32), this molecule showed a hek293_flor_emax_32 of 0, a hek293_flor_pod_32 of -4.417 and a hek293_flor_wauc_32 of 0. In the data set with HEK293 cells [4] (time point 40), this molecule returned a hek293_flor_emax_40 of 0, a hek293_flor_pod_40 of -4.417 and a hek293_flor_wauc_40 of 0. Further, in the data set with HepG2 cells [5], the hepg2_glo_auc is given as 0 and the hepg2_glo_time is on record as 48. In the data set on HepG2 cells [5] (kinetics bin), the hepg2_glo_bin result is “inactive”. In the data set on HepG2 cells [5] (time point 0), this molecule gave a hepg2_glo_emax_0 of 0, a hepg2_glo_pod_0 of -4.417 and a hepg2_glo_wauc_0 of 0. In the data set on HepG2 cells [5] (time point 8), this molecule returned a hepg2_glo_emax_8 of 0, a hepg2_glo_pod_8 of -4.417 and a hepg2_glo_wauc_8 of 0. In the data set on HepG2 cells [5] (time point 16), this molecule showed a hepg2_glo_emax_16 of 0, a hepg2_glo_pod_16 of -4.417 and a hepg2_glo_wauc_16 of 0. In the data set with HepG2 cells [5] (time point 24), this molecule showed a hepg2_glo_emax_24 of 0, a hepg2_glo_pod_24 of -4.417 and a hepg2_glo_wauc_24 of 0. In the data set with HepG2 cells [5] (time point 32), this molecule yielded a hepg2_glo_emax_32 of 0, a hepg2_glo_pod_32 of -4.417 and a hepg2_glo_wauc_32 of 0. In the data set on HepG2 cells [5] (time point 40), this molecule had a hepg2_glo_emax_40 of 0, a hepg2_glo_pod_40 of -4.417 and a hepg2_glo_wauc_40 of 0. In [1] (any activity in any time point/assay), this molecule gave an information of 0. Moreover, the pEC50 with HEK293 cells [6] (HEK293, read-out: hek293_glo_ec50_0) was below 4.42. The pEC50 in the data set with HEK293 cells [6] (HEK293, read-out: hek293_glo_ec50_8) was below 4.42. The pEC50 with HEK293 cells [6] (HEK293, read-out: hek293_glo_ec50_16) was below 4.42. Also, the pEC50 with HEK293 cells [6] (HEK293, read-out: hek293_glo_ec50_24) is below 4.42. Besides, the pEC50 with HEK293 cells [6] (HEK293, read-out: hek293_glo_ec50_32) is below 4.42. The pEC50 in the data set with HEK293 cells [6] (HEK293, read-out: hek293_glo_ec50_40) is below 4.42. For the same molecule, the pEC50 in the data set with HEK293 cells [7] (HEK293, read-out: hek293_flor_ec50_0) was below 4.42. The pEC50 in the data set with HEK293 cells [7] (HEK293, read-out: hek293_flor_ec50_8) is below 4.42. In the data set on HEK293 cells [7] (HEK293, read-out: hek293_flor_ec50_16), the pEC50 was below 4.42. Moreover, the pEC50 in the data set with HEK293 cells [7] (HEK293, read-out: hek293_flor_ec50_24) was below 4.42. Further, in the data set on HEK293 cells [7] (HEK293, read-out: hek293_flor_ec50_32), the pEC50 was below 4.42. The pEC50 with HEK293 cells [7] (HEK293, read-out: hek293_flor_ec50_40) was below 4.42. Further, the pEC50 with HepG2 cells [8] (HepG2, read-out: hepg2_glo_ec50_0) was below 4.42. Moreover, the pEC50 with HepG2 cells [8] (HepG2, read-out: hepg2_glo_ec50_8) was below 4.42. Moreover, the pEC50 with HepG2 cells [8] (HepG2, read-out: hepg2_glo_ec50_16) is below 4.42. Further, in the data set with HepG2 cells [8] (HepG2, read-out: hepg2_glo_ec50_24), the pEC50 was below 4.42. Moreover, the pEC50 with HepG2 cells [8] (HepG2, read-out: hepg2_glo_ec50_32) is below 4.42. Further, the pEC50 with HepG2 cells [8] (HepG2, read-out: hepg2_glo_ec50_40) is below 4.42.
Turning to `CC/C(=C(/CC)c1ccc(O)cc1)c1ccc(O)cc1` [Diethylstilbestrol, reference compound], the “cytotoxicity kinetics activity profile” value in data set [1] (human) was “active only in HEK293[glo]”. For the same molecule, the “Nrf2 TF activity (in words)” value in the data set with NRF2 was “increased Nrf2 TF activity”.
